US5187187A, “Irreversible ligands for nonsteroidal antiinflammatory drug and prostaglandin binding sites” (Trustees of the University of Pennsylvania, priority 1991, dated 1993)

What was measured:
[1] = biological target: T1, 3α-HSD (Rattus norvegicus, UniProt P23457); test: Competitive inhibition of androsterone oxidation catalyzed by 3α-HSD, initial velocity conditions, method of Dixon; format: biochemical; conditions: inhibition constants under initial velocity conditions, NADH formation at 340 nm, pH 7.0
T1 construct: The homogeneous 3α-HSD of rat liver cytosol; from tissue; host or cells: rat liver cytosol
T1 sequence (P23457 1-322): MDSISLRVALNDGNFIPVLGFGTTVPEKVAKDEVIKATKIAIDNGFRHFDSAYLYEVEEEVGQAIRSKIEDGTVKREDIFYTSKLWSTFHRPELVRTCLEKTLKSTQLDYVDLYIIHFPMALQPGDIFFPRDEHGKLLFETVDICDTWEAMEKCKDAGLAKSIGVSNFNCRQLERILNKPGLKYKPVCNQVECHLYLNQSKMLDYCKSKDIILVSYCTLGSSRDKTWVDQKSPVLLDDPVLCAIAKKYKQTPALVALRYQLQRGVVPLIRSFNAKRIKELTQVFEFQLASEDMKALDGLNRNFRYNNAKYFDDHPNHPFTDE
Protocol: Initial rates were determined spectrophotometrically by measuring the rate of NADH formation at 340 nM over 5 minutes in an assay containing 2.3 mM AND^+ in 0.1 M potassium phosphate buffer pH 7.0, with 4% acetonitrile (v/v) as a cosolvent in a 1 ml system. The assay was started by the addition of enzyme. […] From the slope of this plot, the Ki was determined.

[2] = biological target: T1, 3α-HSD; test: Time and concentration dependent inactivation of 3α-HSD, method of Kitz and Wilson; format: biochemical; conditions: for t1/2 life for the enzyme at saturating inactivator concentrations: Kitz and Wilson analysis; for Return of activity of inactivated enzyme by extensive dialysis: after inactivation; for Loss of 3α-HSD activity (inactivation): incubation of enzyme with inactivator; for KI (inactivation): independent determination from time dependent inactivation, 1/kapp vs 1/[Inhibitor], pH 7.0, read-out: Ki (Kitz and Wilson analysis of inactivation)
Protocol: The difference in the Ki 's determined from the two methods can probably be attributed to the difference in the binding order in the enzymatic mechanism.
Inactivation of […] (15 μM) was conducted in incubations (50 μl) of 10 mM potassium phosphate buffer pH 7.0 containing 1 mM EDTA and 4% acetonitrile as a cosolvent. Enzyme activity was followed over time by diluting an aliquot of the incubation mixture in a 1 ml assay containing 2.3 mM […] and 75 μM androsterone in 0.1 M potassium phosphate buffer, pH 7.0 containing 1 mM mercaptoethanol, with 4% acetonitrile as a cosolvent. Initial rates were determined as described in FIG. 1. Because of the 100 fold or greater dilution of the enzyme into the assay, the initial rate measured is an indication of the enzyme activity remaining at that time. Initial rates of inactivation (kapp 's) were determined from semilogarithmic plots of percent enzyme activity remaining versus time. Data was replotted (FIG. 2b) as 1 /kapp vs 1/[Inhibitor] from which kinact (the rate constant for enzyme inactivation) and Ki (the binding constant for compound (VII)) were determined.

[3] = in vivo; cited from earlier work

Compound	Ki [1]	t1/2 life for the enzyme at saturating inactivator concentrations [2]	Return of activity of inactivated enzyme by extensive dialysis [2]	KI (inactivation) [2]	Loss of 3α-HSD activity (inactivation) [2]	plasma t1/2 life [3]
O=C(CBr)Nc1cccc(Nc2ccccc2C(=O)O)c1 [Compound (VIII), N-(3-bromoacetamidophenyl) anthranilic acid]	1.5 µM	7.1 s	cannot be returned by extensive dialysis	155 µM	time and concentration dependent loss of 3α-HSD activity	–
COc1ccc2c(c1)c(CC(=O)O)c(C)n2C(=O)c1ccc(Cl)cc1 [Indomethacin (I), indomethacin, reference compound]	0.835 µM	–	–	–	–	–
Cc1ccc(C(=O)c2ccc(CC(=O)O)n2C)cc1 [Tolmetin (IV), tolmetin, reference compound]	29 µM	–	–	–	–	–
CC(=O)Oc1ccccc1C(=O)O [aspirin, acetyl salicylate]	–	–	–	–	–	900 s

Now from value to compound, other results behind:

Ki [1]	t1/2 life for the enzyme at saturating inactivator concentrations [2]	Return of activity of inactivated enzyme by extensive dialysis [2]	KI (inactivation) [2]	Compound	Loss of 3α-HSD activity (inactivation) [2]	plasma t1/2 life [3]
15 µM	40.2 s	cannot be returned by extensive dialysis	233 µM	COc1ccc2c(c1)c(CC(=O)O)c(C)n2Cc1ccc(NC(=O)CBr)cc1 [Compound (VI), 1-(4-bromoacetamidobenzyl)-5-methoxy-2-methylindole-3-aceticacid]	time and concentration dependent loss of 3α-HSD activity	–
2.5 µM	12.1 s	cannot be returned by extensive dialysis	161 µM	O=C(CBr)Nc1ccc(Nc2ccccc2C(=O)O)cc1 [Compound (VII), N-(4-bromoacetamidophenyl) anthranilic acid]	time and concentration dependent loss of 3α-HSD activity	–
1.1 µM	–	–	–	Cc1ccc(Cl)c(Nc2ccccc2C(=O)O)c1Cl [Meclofenamate (II), meclofenamic acid, reference compound]	–	–
